Assay results reported in patent US9266904B2, “6-bridged heteroaryldihydropyrimidines for the treatment and prophylaxis of hepatitis B virus infection” (priority 2013, dated 2016).
In brackets after ≈: the same amount, converted by molar mass.

Assays:
CYP3A4 = details: human, 24 h
Description: Human cryopreserved hepatocytes (Life Technologies, Carlsbad, USA) were thawed and cultured in collagen I coated 96-well plates with a density of 52,000 cells/well. After attachment, medium was changed and cells were pre-cultured overnight in hepatocyte maintenance medium (HMM; Lonza, Switzerland).
Test compounds were dosed to the cells next morning at an indicated concentration (up to 10 μM) in HMM culture media containing gentamycin and a constant 0.1% DMSO. Similarly, dilutions of the positive inducer compounds omeprazole (prototypical inducer of human CYP1A2; final concentrations: 1 and 10 μM), phenobarbital (prototypical inducer of human CYP2B6; final concentrations: 100 and 1000 μM) and rifampicin (prototypical inducer of human CYP3A4; final concentrations: 1 and 10 μM) were prepared from 1000 fold DMSO stock solutions in HMM containing gentamycin. Medium change was then performed and cells were exposed for 24 hours to test compounds, positive inducer compounds, or vehicle (0.1% DMSO), respectively.
At the end of the compound exposure period, medium was removed and cells lysed using 100 μL/well MagNA Pure LC RNA isolation tissue lysis buffer (Roche Diagnostics AG, Rotkreuz, Switzerland). Plates were then sealed and frozen at −80° C. until further workup.
mRNA isolation was performed using the MagNA Pure 96 system (Roche Diagnostics AG, Rotkreuz, Switzerland) and the respective cellular RNA large volume kit (Roche Diagnostics AG, Rotkreuz, Switzerland) from thawed samples diluted 1:1 with PBS. The volume of the cell lysis and an elution volume of 100 μL were used. 20 μL of the resulting mRNA suspension was then used for reverse transcription using 20 μL of the transcript or first stand cDNA synthesis kit (Roche prime Supply, Mannheim, Germany). The resulting cDNA was diluted with 40 μL of H2O before using for qRT-PCR. qRT-PCR was performed by using the forward and the reverse primer, the corresponding UPL (all from Microsynth, Balgach, Switzerland) and the Taqman Fast advanced master mix (Applied Biosystems), on an ABI 7900 machine (Applied Biosystems).
qRT-PCR Ct-values for the respective P450s were put into relation to the Ct-value of RN18S1 (microsynth, Balgach, Switzerland) of the same sample. Doing so, a respective Δct-value was calculated. Using the average of all Δct-values for the vehicle control samples, a ΔΔct-value was calculated for each sample (ΔΔct-value(sample)=Δct-value(sample)−average of Δct-value of all vehicle controls). The fold induction of the respective sample was calculated as 2^(−ΔΔct). The individual fold induction values were then averaged per treatment condition (usually n=3 biological replicates).
Relative induction values to the respective positive inducer compound condition (10 μM omeprazole for CYP1A2; 1000 μM Phenobarbital for CYP2B6; 10 μM rifampicin for CYP3A4) were then calculated from the fold induction values as follows: Relative induction(%)=100×(T−V)/(P−V)
T: fold induction of test compound condition
P: fold induction of positive inducer compound
V: fold induction of vehicle controls

[1] = test system: HBV replication in HepG2.2.15 cells; assay: Anti-HBV activity in vitro in HepG2.2.15 cells (extracellular HBV DNA by qPCR); assay type: cell-based; details: Hepatitis B virus, HepG2.2.15, Anti-HBV activity in HepG2.2.15 cells; read-out: EC50
Procedure, shortened: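 EC50 is derived from qPCR of extracellular viral DNA in culture supernatant after 5-day compound exposure. Cells (HepG2.2.15, stably carrying the HBV genome) were plated and incubated overnight at 37 °C before half-log dilution series were added at 0.5% final DMSO.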

[2] = Lyophilisation solubility assay (Lysa); assay type: physicochemical; details: pH 6.5, aqueous buffer, thermodynamic from solid
Procedure, shortened: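 DMSO was evaporated from 10 mM stocks, and residues were taken up in 0.05 M phosphate buffer pH 6.5, stirred 1 h, shaken 2 h and left overnight. Filtrates were quantified by UV or HPLC-UV against a four-point calibration, in duplicate. Values are in μg/ml, with a lower-bound value when >80% dissolved.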

[3] = Human microsomal clearance assay; assay type: in vitro ADME; details: human, 1 μM, pH 7.4
Procedure, shortened: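 Liver microsomes (0.5 mg/mL protein) were incubated with 1 μM compound at 37 °C, pH 7.4 phosphate, with an NADPH-regenerating system. Samples at 0-30 min were quenched and measured by LC-MS/MS for parent loss. No-NADPH controls were included.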

HepDE19 cells = assay: Cytotoxicity (CCK-8 cell viability) and selectivity index; assay type: cell-based, human; details: CC50 value/EC50 value
Procedure, shortened: (§1)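 HepDE19 cells (5×10^3/well) were treated with compounds as for the EC50 runs and, after 5 days, given CCK-8 for 2 h at 37° C. Absorbance was read at OD450 and OD630, and CC50 was taken as the concentration killing 50% of host cells.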

[4] = as above; assay type: cell-based, human; details: human, HepDE19 cells; cytotoxicity, concentration resulting in death of 50% of host cells
Procedure, shortened: as §1

SMILES | % of Positive control (10 μM Rifampicin) (CYP3A4) [%] | EC50 [1] [nM] | solubility thermodynamic [2] [µg/mL] | CLh [3] [mL/min/kg] | Selectivity index (CC50/EC50) (HepDE19 cells) | CC50 at 5 days [4] [nM]
COC(=O)C1=C(CN2C3COCC2CN(C)C3)NC(c2nccs2)=N[C@H]1c1ccc(F)cc1Cl [Example 12, (R)-4-(2-Chloro-4-fluoro-phenyl)-6-(7-methyl-3-oxa-7,9-diaza-bicyclo[3.3.1]non-9-ylmethyl)-2-thiazol-2-yl-1,4-dihydro-pyrimidine-5-carboxylic acid methyl ester] | 21 | 566 | > 597 | – | – | –
COC(=O)C1=C(CN2C3COCC2CC(CC(=O)O)C3)NC(c2nccs2)=N[C@H]1c1ccc(F)cc1Cl (stereo partly drawn) [Example 24, (R)-6-(7-Carboxymethyl-3-oxa-9-aza-bicyclo[3.3.1]non-9-ylmethyl)-4-(2-chloro-4-fluoro-phenyl)-2-thiazol-2-yl-1,4-dihydro-pyrimidine-5-carboxylic acid methyl ester] | 29 | 13 | > 621 | 2.6 | >7692 | > 100000
CCOC(=O)C1=C(CN2C3COCC2CC(CC(=O)O)C3)NC(c2nccs2)=N[C@H]1c1ccc(F)cc1Cl (stereo partly drawn) [Example 26, (R)-6-(7-Carboxymethyl-3-oxa-9-aza-bicyclo[3.3.1]non-9-ylmethyl)-4-(2-chloro-4-fluoro-phenyl)-2-thiazol-2-yl-1,4-dihydro-pyrimidine-5-carboxylic acid ethyl ester] | 36 | 13 | 470 (≈ 835 µM) | 3.5 | 5231 | 68000
COC(=O)C1=C(CN2C3COCC2c2cn[nH]c2C3)NC(c2nccs2)=N[C@H]1c1ccc(F)cc1Cl (stereo partly drawn) [Example 31, (R)-4-(2-Chloro-4-fluoro-phenyl)-6-(10-oxa-4,5,12-triaza-tricyclo[6.3.1.0*2,6*]dodeca-2(6),3-dien-12-ylmethyl)-2-thiazol-2-yl-1,4-dihydro-pyrimidine-5-carboxylic acid methyl ester] | 25 | 35 | – | – | – | –
COC(=O)C1=C(CN2C3COCC2CC(NC(C)=O)C3)NC(c2nccs2)=N[C@H]1c1ccc(F)cc1Cl (stereo partly drawn) [Example 35, (R)-6-(7-Acetylamino-3-oxa-9-aza-bicyclo[3.3.1]non-9-ylmethyl)-4-(2-chloro-4-fluoro-phenyl)-2-thiazol-2-yl-1,4-dihydro-pyrimidine-5-carboxylic acid methyl ester] | 20 | 6 | – | 6.4 | 7813 | 50000
COC(=O)C1=C(CN2CC3CC(C2)O3)NC(c2nccs2)=N[C@H]1c1ccc(F)cc1Cl [Example 38, (R)-4-(2-Chloro-4-fluoro-phenyl)-6-(6-oxa-3-aza-bicyclo[3.1.1]hept-3-ylmethyl)-2-thiazol-2-yl-1,4-dihydro-pyrimidine-5-carboxylic acid methyl ester] | 35 | 114 | – | – | – | –
COC(=O)C1=C(CN2C3COCC2C(NC(C)=O)C3)NC(c2nccs2)=N[C@H]1c1ccc(F)cc1Cl (stereo partly drawn) [Example 48, Methyl (4R)-6-[(6-acetamido-3-oxa-8-azabicyclo[3.2.1]octan-8-yl)methyl]-4-(2-chloro-4-fluoro-phenyl)-2-thiazol-2-yl-1,4-dihydropyrimidine-5-carboxylate] | 17 | 19.4 | 100 (≈ 187 µM) | 4.8 | – | –
COC(=O)C1=C(CN2[C@@H]3COC[C@H]2C[C@@H](NS(N)(=O)=O)C3)NC(c2nccs2)=N[C@H]1c1ccc(F)cc1Cl [Example 56, Methyl (4R)-4-(2-chloro-4-fluoro-phenyl)-6-[[(1R,5S)-7-endo-(sulfamoylamino)-3-oxa-9-azabicyclo[3.3.1]nonan-9-yl]methyl]-2-thiazol-2-yl-1,4-dihydropyrimidine-5-carboxylate] | 23 | 4.4 | – | 6.1 | 9766 | 43000
CCOC(=O)C1=C(CN2[C@@H]3COC[C@H]2C[C@H](CC(=O)O)C3)NC(c2nccs2)=N[C@H]1c1cccc(F)c1Cl [Example 66, Exo-2-[(1S,5R)-9-[[(4R)-4-(2-chloro-3-fluoro-phenyl)-5-ethoxycarbonyl-2-thiazol-2-yl-1,4-dihydropyrimidin-6-yl]methyl]-3-oxa-9-azabicyclo[3.3.1]nonan-7-yl]acetic acid] | 6.2 | 3.6 | 390 (≈ 693 µM) | 3.2 | – | –
CCOC(=O)C1=C(CN2[C@@H]3COC[C@H]2C[C@H](CC(=O)O)C3)NC(c2nccs2)=N[C@H]1c1cccc(F)c1Br [Example 68, Exo-2-[(1S,5R)-9-[[(4R)-4-(2-bromo-3-fluoro-phenyl)-5-ethoxycarbonyl-2-thiazol-2-yl-1,4-dihydropyrimidin-6-yl]methyl]-3-oxa-9-azabicyclo[3.3.1]nonan-7-yl]acetic acid] | 7.7 | 3.8 | 320 (≈ 527 µM) | 3.5 | – | –
COC(=O)C1=C(CN2[C@@H]3CC[C@@]2(C(=O)O)COC3)NC(c2nccs2)=N[C@H]1c1ccc(F)c(F)c1C [Example 85, (1R,5S)-8-[[(4S)-4-(3,4-difluoro-2-methyl-phenyl)-5-methoxycarbonyl-2-thiazol-2-yl-1,4-dihydropyrimidin-6-yl]methyl]-3-oxa-8-azabicyclo[3.2.1]octane-5-carboxylic acid] | – | 6.6 | > 639 | 1.3 | >15152 | > 100000
COC(=O)C1=C(CN2[C@@H]3C[C@H](CC(=O)O)C[C@H]2C(F)(F)C3)NC(c2nccs2)=N[C@H]1c1ccccc1Cl [Example 90, 2-[(1R,3S,5S)-8-[[(4R)-4-(2-chlorophenyl)-5-methoxycarbonyl-2-thiazol-2-yl-1,4-dihydropyrimidin-6-yl]methyl]-6,6-difluoro-8-azabicyclo[3.2.1]octan-3-yl]acetic acid] | 37 | 3.5 | 230 (≈ 417 µM) | 1.5 | – | –
COC(=O)C1=C(CN2[C@@H]3C[C@@H](CC(=O)O)C[C@H]2C(F)(F)C3)NC(c2nccs2)=N[C@H]1c1ccc(F)cc1Cl [Example 109, 2-[(1R,3R,5S)-8-[[(4R)-4-(2-chloro-4-fluoro-phenyl)-5-methoxycarbonyl-2-thiazol-2-yl-1,4-dihydropyrimidin-6-yl]methyl]-6,6-difluoro-8-azabicyclo[3.2.1]octan-3-yl]acetic acid] | – | 1.7 | 107 (≈ 188 µM) | 7.2 | >58824 | > 100000
CCOC(=O)C1=C(CN2C3COCC2C(F)(F)[C@H](CC(=O)O)C3)NC(c2nccs2)=N[C@H]1c1cccc(F)c1Cl (stereo partly drawn) [Example 130, 2-[(7S)-9-[[(4R)-4-(2-chloro-3-fluoro-phenyl)-5-ethoxycarbonyl-2-thiazol-2-yl-1,4-dihydropyrimidin-6-yl]methyl]-6,6-difluoro-3-oxa-9-azabicyclo[3.3.1]nonan-7-yl]acetic acid] | – | 6.4 | 219 (≈ 366 µM) | 5.0 | 10830 | 69000
